This series can be described thus: Solubility of DXM in the 6:1 (v/v) DCM to THF spin dope co-solvent. Particulars: 6:1 (v/v) DCM to THF co-solvent (spin dope), organic solvent or mixture; 6:1 (v/v) DCM to THF with PLLA; read-out: maximum solubility in co-solvent solution. It counts as physicochemical. As for the experimental part: PLLA (7.5% w/v), DXM-loaded (1.0%, 2.4%, 4.8% w/w) and unloaded (0% w/w) microfibers were wet spun by phase inversion. PLLA (526.9±0.3 mg) was dissolved in a co-solvent ratio of 6:1 (v/v) DCM to THF. […] The addition of THF was necessary to increase DXM solubility within the spin dope. The polymer/drug solution was loaded into a 5 mL syringe fitted with a 22-gauge spinneret and placed in a syringe pump with a solution flow rate of 0.06 mL/min. […] A rotating mandrel placed above the spin bath was used to collect microfibers for further analysis. Each formulation in Examples herein was characterized from multiple regions of meter-long microfiber bundles spun at the same time from one spin dope solution.

Converted amounts (≈) assume the structure as drawn.

From patent US9238011B2, “Compositions, methods and kits for therapeutic treatment with wet spun microstructures” (Brown University, priority 2012, dated 2016) come the findings set out here.

Broadly, the solubility is the dissolved amount per volume that the medium holds.

Turning to `C[C@@H]1C[C@H]2[C@@H]3CCC4=CC(=O)C=C[C@]4(C)[C@@]3(F)[C@@H](O)C[C@]2(C)[C@@]1(O)C(=O)CO` [DXM, Dexamethasone], the solubility is ~3600 µg/mL (≈ 9.17 mM).
